Source: patent publication US5192774A, “Substituted acetamide derivatives, process for their preparation and antiulcer drug containing same” (Zeria Pharmaceutical Co., Ltd., priority 1988, dated 1993)

Legend:
[1] = tested on: gastric acid secretion (histamine-stimulated); experiment: Effects on Gastric Acid Secretion of Anesthesia Fistula Rat by Histamine; assay type: in vivo, rat (male SD); conditions: 30 mg/kg, histamine infusion, acid output 1 to 4 hours after administration
Description: The aggressive factor inhibition action was evaluated from the effects on the gastric acid secretion of anesthesia fistula rats by histamine, while the protective factor potentiation action was evaluated from the effects observed in a hydrochloric acid-ethanol ulcer model. In the Tables, the column of test compounds indicates Example numbers where the compounds are prepared. Male SD rats (Japan Charles River Co., Ltd.) each weighing 180 to 200 g were fasted for 24 hours before celiotomy with etherrization. A feeding tube (fr. 3.5) for injecting test medicines was inserted into the duodenum, and the pylorus was ligatured. A polyethylene tube (inner diameter: 7 mm) was used in the anterior stomach and gastric fistula was performed. After washing the inside of the stomach with heated physiological salt solution (37° C.) several times, the body was closed. A tube with a fin was inserted into the caudal vein and was fastened with a tape and it was connected to a infusion pump (Harvard). The rats were enclosed in a KN Ballman II cage (Natsume Seisakusho). Gastric juice flowed from the fistula was collected with a […] one hour. Starting form one hour after the operation, histamine was continuously injected at a rate of 1.4 ml/hour through the caudal vein. Then, test compounds suspended in 0.5% sodium caboxy methyl cellulose (Na-CMC) were administered one hour after the start of the histamine injection. The gastric juice thus extracted in a period from one hour after the administration of the chemical to four hours after that was titrated by using an automatic titration aparatus (Kyoto Electronic) with 0.1N NaOH to adjust pH 7, and the quantity of the gastric juice was measured to obtain the total acid output. […] [formula]

[2] = tested on: ulcer formation caused by hydrochloric acid-ethanol; experiment: Hydrochloric Acid-Ethanol Ulcer Test; assay type: in vivo, rat (male SD); conditions: 100 mg/kg, oral, 30 minutes before hydrochloric acid-ethanol; rat
Description: The aggressive factor inhibition action was evaluated from the effects on the gastric acid secretion of anesthesia fistula rats by histamine, while the protective factor potentiation action was evaluated from the effects observed in a hydrochloric acid-ethanol ulcer model. In the Tables, the column of test compounds indicates Example numbers where the compounds are prepared.
Male SD rats each weighing 170 to 190 g were fasted for 24 hours, and 1 ml of 150 mM hydrochloric acid-60% ethanol was orally administered to each rat. After one hour, rats were clubbed to death, and the stomach was extracted. 10 ml of 2% formalin solution was applied to the stomach for fixing for 10 minutes. The length (mm) of the injuries in the tunica mucosa taken place in the glandular stomach was measured under a stereoscopic microscope. The total length of the injuries of the individual was taken as the ulcer index.
Test compounds or control (1% Na-CMC) were orally administered in an amount of 0.5 ml/100 g, 30 minutes before the administration of hydrochloric acid-ethanol.

[3] = Acute toxicity test by oral administration; assay type: in vivo
Description: (§1) The compounds according to Examples 2, 7, 8 and 12 were respectively suspended in 3% gum arabic solution and continuously, forcedly and orally administrated to three ICR:Crj 5 week old male mice for 14 days at a dose of 500 mg/kg/day.

[4] = tested on: ICR:Crj 5 week old male mice; experiment: Toxicity test, repeated oral administration for 14 days; assay type: in vivo, mouse (ICR:Crj; conditions: 500 mg/kg/day
Description: as §1

SMILES	Gastric acid secretion inhibition effect (%) [1] [%]	Ulcer Inhibition Rate(%) [2] [%]	LD50 value ([3]; acute, oral administration) [mg/kg]	death [4]	LD50 ([3]; mouse, in vivo, po) [mg/kg]
O=C(CO)NCCCOc1cccc(CN2CCCCC2)c1 [Roxatidine, reference compound]	68.8	69.4	755		
O=C(CS(=O)(=O)CCO)NCCCOc1cccc(CN2CCCCC2)c1 [Example 7, N-[3-[3-(piperidinomethyl)phenoxy]propyl]-2-(2-hydroxyethylsulfonyl)acetamide]	59.4			No rat died	
CN/C(=N/CCSCc1nc[nH]c1C)NC#N [Cimetidine, reference compound]	32.3	22.7			
O=C(CSCCO)NCCCOc1cccc(CN2CCCC2)c1 [Example 8, N-[3-[3-(1-pyrrolidinylmethyl)phenoxy]propyl]-2-(2-hydroxyethyl-1-thio)acetamide]	70.9			No rat died	
CC(=O)OCCSCC(=O)NCCCOc1cccc(CN2CCCC2)c1 [Example 12, N-[3-[3-(1-pirrolidinylmethyl)phenoxy]propyl]-2-(2-acetoxyethyl-1-thio)acetamide]	55.4			No rat died	
O=C(CSCCO)NCCCOc1cccc(CN2CCCCC2)c1 [Example 2, N-[3-[3-(piperidinomethyl)phenoxy]propyl]-2-(2-hydroxyethyl-1-thio)acetamide]	79.5	72.5		No rat died	2380
